Source: patent US10526581B2, “Modulation of cardiac stem-progenitor cell differentiation, assays and uses thereof” (priority 2013, dated 2020)

Key:
[1] = test system: adult myocytes isolated from Tg^c-kit/GFP mice; assay: ISO in vitro on adult myocytes isolated from Tg^c-kit/GFP mice; format: cell-based, mouse; conditions: ISO 10 nM, cultured for 48 hrs
adult rat myocardium = assay: diffuse myocardial damage by single ISO injection in rats: eCSC activation; format: in vivo
Excerpt: Adult c-kit^poseCSCs are scattered throughout the myocardium with higher density within the atria and the ventricular apex (10). When the apical myocardium is severely injured by catecholamine overdrives, induced through Isoproterenol bolus injection, c-kit^poseCSCs are rapidly activated and respond to damage by increasing their number (16) and differentiate into cardiomyocyte lineage (Unpublished data). The same growth response by these cells is detectable in the ischemic myocardium (17) as well as in hearts with pathologic or physiological overload (18,19). During embryonic life, a progressive process of cell specification or commitment, precisely regulated in space and time, determine cardiac muscle cell creation from cardiac progenitor cells (20). In the latter phenomenon, “cell-autonomous” decisions (intrinsic to a cell) are accompanied by “cell-non-autonomous” events, which entail extracellular cardiomyogenic instructive molecules known as morphogens or cardiopoietic growth factors (cGFs) (8,9). […] The mRNA levels for different cGFs and their detection by immunohistochemistry correlated with the levels of the corresponding protein (FIG. 4).
Diffuse myocardial damage was induced by a single injection (s.c.) of isoproterenol (ISO) to rats (5 mg kg^−1) or mice (200 mg kg^−1). […] Mer-CreMer mice were kindly provided by Drs. Tammie Bishop and Ludwig Thierfelder (see below). ZEG and RYP mice were purchased at Jackson Laboratory.
To follow c-kit^poseCSC physiological response to cardiac injury, we induced severe diffuse myocardial damage in adult rats with a single high dose of isoproterenol (ISO) (Ellison et al., 2007b). New cell formation was monitored with BrdU labeling in vivo (Waring et al., 2012). In the presence of a patent coronary circulation, ISO produces a Takotsubo-like cardiomyopathy (Akashi et al., 2008) with both diffuse sub-endocardial and apical CM death. This acute insult kills 8-10% of the LV CMs and results in overt acute heart failure (Ellison et al., 2007b). […] While in the normal myocardium (CTRL) most c-kit^poseCSCs are quiescent (>90% BrdU^neg and Ki67^neg), after ISO damage a high fraction enters the cell cycle (FIG. 14A-C and FIG. 21). At day 3, ˜88% are BrdU^pos (FIG. 14C), leading to an ˜8-fold increase in eCSC number, which decreases thereafter but remains above CTRL for up to 28 days (FIG. 14A).
The expansion of the eCSC pool in response to CM loss by ISO damage was followed by their commitment to myocardial cell lineages. […]

CC(C)NCC(O)c1ccc(O)c(O)c1 (stereo not drawn) [ISO, isoproterenol]
ANP expression (fetal myocyte gene program) [1]: increased ANP expression
c-kit/GFP transcription in adult myocytes [1]: unable to activate
expression of cardiopoietic growth factors in the myocardium (adult rat myocardium; after ISO injection): significantly increased expression
increase of c-kit^posNkx2.5^posGATA4^pos cells over CTRL (adult rat myocardium; by day 3 after ISO): ~4 fold
BrdU^pos c-kit^pos eCSCs (adult rat myocardium; day 3 after ISO): ~88%
increase in eCSC number (adult rat myocardium; day 3 after ISO): ~8 fold
